Here are results for one substance from US10179160B2, “Therapeutic compositions for the treatment of dry eye disease” (SCHEPENS EYE RESEARCH INSTITUTE, priority 2010, dated 2019).

The subject of experiment [1] is DED mice. As to the kind of experiment: Corneal fluorescein staining / clinical signs in experimental dry eye murine model. It is filed as in vivo. Particulars: for clinical signs of DED / disease severity: anti-VEGF-C-treated vs untreated DED mice. The source says: (§1) Eight to ten week-old female C57BLI6 mice (Charles River Laboratory, Wilmington, Mass.) were used in accordance with the standards in the ARVO Statement for the Use of Animals in Ophthalmic and Vision Research. The research protocol was approved by the Schepens Eye Research Institute Animal Care and Use Committee. Dry eye was induced in murine eyes using a Controlled Environment Chamber (CEC) which exposes the mice to high-flow desiccated air. To achieve maximum ocular surface dryness, the conditions in CEC were supplemented with topical application of 1% atropine sulfate (Falcon Pharma, Fort Worth, Tex.) twice for the first 48 hours and subcutaneous injections of 0.1 ml of 5 mg/ml of scopolamine hydrobromide (Sigma-Aldrich, St. Louis, Mo.) three times a day, for the entire duration of the experiment.
(§2) Anti-VEGF-C antibodies (VGX-100; Vegenics Limited, Australia) were administered intraperitonealy daily from day 1 to day 10 to DED mice. Mice were assessed clinically using corneal fluorescent staining. Tissues from cornea, conjunctiva and draining lymph nodes were examined for cellular and molecular pathological changes.
Corneal lymphatics play an important role in mediating the corneal inflammation in dry eyes. Experiments: To validate this, inhibition of corneal neolymphangiogenesis was performed in a well characterized mouse model of DED described above. To see if inhibition of corneal neolymphangiogenesis could decrease ocular surface inflammation, anti-VEGF-C antibodies were administered i.p. daily from day −1 to day 10 to DED mice and assessed clinically using corneal fluorescein staining.
Methods (as described previously): Induction of Dry Eye Disease. Experimental Dry Eye Murine Model. Assessment of Corneal Surface: Corneal Fluorescein Staining. Immunohistochemistry: Monocyte/macrophage marker—CD11b; Pan-endothelial marker—CD31; Lymphatic endothelial marker—LYVE-1; Blood vessels: CD31^hi/LYVE-1; Lymph vessels: CD31^lo/LYVE-1^hi. Morphometry of Lymphangiogenesis: Automated image analysis program written using Mat lab. Lymphatic Area (LA)—total surface area of the lymphatic vessels when projected into the plane of the image. Lymphatic Caliber (LC)—measure of the diameters of the lymphatic vessels.
Anti-VEGF-C antibody and treatment regimen. Experimental design: Three groups: Normal, DE group treated with IP normal Saline (Untreated) and DE group treated with anti-VEGF-C antibody (VGX-100; a gift from Vegenics, Australia). Daily IP application of anti-VEGF-C antibody/Normal saline from day −1 to day 13. Dose: […] (20 mg/kg) in […] of Normal Saline.

Experiment [2] deals with DED mice. As to the kind of experiment: Real-time PCR of proinflammatory cytokines in conjunctiva of DED mice. In kind it is in vivo.
From the text: as §1
(§3) Five mice (10 eyes) were included in each group. Two corneas were pooled together to equal as one sample and stored at −80′C in Trizol (Invitrogen, Carlsbad, Calif.; catalog No. 15596026) until future use. Total RNA was isolated from these corneas using the RNeasy microkit (Qiagen, Valencia, Calif.; catalog No. 74004). Equal amounts of RNA were used to synthesize cDNA using SuperScript™ III Reverse Trancriptase (Invitrogen, Carlsbad, Calif.; catalog No. 18080) according to the manufacturer's recommendations. Real-Time PCR was performed using FAM-MGB dye labeled predesigned primers (Applied Biosystem, Foster City, Calif.) for GAPDH (assay ID.Mm999999 15_g1), VEGF-A (Mm00437304_m1), VEGF-C (Mrn00437313_m1), VEGF-D (Mm00438965_m1), VEGFR-2 (Mm00440099_m1), VEGFR-3 (Mm00433337_m1). 2.5 μl of cDNA was loaded in each well and assays were performed in duplicate. The GAPDH gene was used as the endogenous reference for each reaction. The results were normalized by the cycle threshold (CT) of GAPDH and the relative mRNA level in the normal mice was used as the normalized control.
as §2
(§4) Real time PCR was performed to quantify expression of different VEGF growth factors (VEGF-A, VEGF-C, VEGF-D) and their receptors (VEGFR-2, VEGFR-3) in the cornea at days 6, 10 and 14 (FIG. 8) and to determine the levels of proinflammatory cytokines.
(In general: Real-time PCR tracks product formation cycle by cycle.)

Experiment [3] concerns DED mice. As to the kind of experiment: Real-time PCR of IL-17 and IFN-γ in draining lymph nodes of DED mice. In kind it is in vivo. Particulars: anti-VEGF-C treated vs untreated DED mice.
From the text: as §1
Five mice (10 eyes) were included in each group. […]
(§5) Anti-VEGF-C antibodies (VGX-100; Vegenics Limited, Australia) were administered intraperitonealy daily from day 1 to day 10 to DED mice. Mice were assessed clinically using corneal fluorescent staining. […]
as §4

In experiment [4] the test system is DED mice. As to the kind of experiment: Enumeration of CD11b+ cells in DED corneas (immunohistochemistry). In kind it is in vivo.
From the text: (§6) Eight to ten week-old female C57BLI6 mice (Charles River Laboratory, Wilmington, Mass.) were used in accordance with the standards in the ARVO Statement for the Use of Animals in Ophthalmic and Vision Research. The research protocol was approved by the Schepens Eye Research Institute Animal Care and Use Committee. Dry eye was induced in murine eyes using a Controlled Environment Chamber (CEC) which exposes the mice to high-flow desiccated air. […]
(§7) Freshly excised corneas were washed in PBS, fixed in acetone for 15 minutes and then double stained with CD31 and LYVE-1 as described previously. To analyze infiltration of CD11b^+/LYVE-1 cells, corneas from three mice from each group were taken and cells were counted in 5-6 areas in the periphery ([…] area from the limbus) of each cornea in a masked fashion, using epifluorescence microscope (model E800; Nikon, Melville, N.Y.) at 40× magnification. The mean number of cells was obtained by averaging the total number of cells in all the areas studied and the result was expressed as the number of positive cells per mm^2.
as §5

In experiment [5] the test system is DED mice. As to the kind of experiment: Corneal lymphangiogenesis (lymphatic growth) in DED mice. Particulars: in vivo blockade of VEGF-C in DED mice.
From the text: as §6, §7
Morphology of lymphatics was analyzed using an automated image analysis program written with Matlab (The Mathworks, Inc., Natick, Mass.). […] The resultant isolated lymphatic vessels were analyzed morphologically using two metrices, Lymphatic Area (LA) and Lymphatic Caliber (LC). […]

Experiment [6] relates to DED mice. As to the kind of experiment: Real-time PCR of pro-lymphangiogenic growth factors and receptors in DE corneas. It is filed as in vivo. Particulars: VEGF-C blockade in DED mice.
From the text: as §1
as §3, with “The results were normalized by the cycle threshold (CT) of GAPDH and the relative mRNA level in the normal mice was used as the normalized control.” left out
as §4

Where [7] appears, read: real-time PCR, anti-VEGF-C treated vs untreated DED mice.

As to “VGX-100: human anti-VEGF-C monoclonal antibody produced by hybridoma ATCC PTA-4095, heavy/light chains SEQ ID NO: 48/49; from Vegenics”, the corneal epitheliopathy entry in the experiment on DED mice [1] (VEGF-C blockade in DED mice) is “decrease”. Further, in the experiment with DED mice [1] (anti-VEGF-C Ab-treated vs untreated DED mice, days 5, 9 and 13, daily IP, 20 mg/kg), the “Corneal fluorescein staining (CFS) score” value is reported as “significantly decreased”. For the same substance, the “clinical signs of DED / disease severity” value with DED mice [1] (daily IP) is on record as “ameliorates”. In addition, the “clinical signs of DED / disease severity” value with DED mice [1] (daily IP, listed as anti-VEGF-C) is reported as “significant decrease”. Also, the “mRNA expression levels of proinflammatory cytokines in the conjunctiva” value in the experiment with DED mice [2] (VEGF-C blockade in DED mice) is recorded as “decrease”. Moreover, in the experiment on DED mice [2] (setting [7]), the “IL-1α expression in conjunctiva” value is listed as “significantly decreased expression”, the “IL-1β expression in conjunctiva” value is recorded as “significantly decreased expression”, the “IL-6 expression in conjunctiva” value was “significantly decreased expression” and the “IL-17 expression in conjunctiva” value is “significantly decreased expression”. Moreover, in the experiment with DED mice [3], the “IFN-γ (Th1 cells) in draining lymph nodes, induction of T-cell mediated autoimmune response” value was “significantly decreased induction” and the “IL-17 (Th17 cells) in draining lymph nodes, induction of T-cell mediated autoimmune response” value is on record as “significantly decreased induction”. In addition, the “corneal infiltration of CD11b+ cells” value in the experiment on DED mice [4] (VEGF-C blockade in DED mice) is “decrease”. The “decrease of infiltration of CD11b+ cells in the DED corneas” value in the experiment on DED mice [4] (day 14) came to 30%. Further, the “corneal lymphangiogenesis / lymphatic growth” value with DED mice [5] is “suppresses”. Further, in the experiment on DED mice [5] (listed as anti-VEGF-C), the “corneal lymphangiogenesis / lymphatic growth” value is given as “suppression”. In the experiment on DED mice [6], the “expression of VEGF-C in DE corneas” value is given as “decrease”, the “expression of VEGF-D in DE corneas” value is reported as “decrease” and the “expression of VEGFR-3 (R3) in DE corneas” value is reported as “decrease”.
